Laboratory results: ChEMBL document CHEMBL5226367, “Synthesis, Optical Properties, and Antiproliferative Evaluation of NBD-Triterpene Fluorescent Probes” (J Nat Prod, 2023)
Values belong to the compound of their own block, whether it stands above or below them. Activity calls are given as the source filed them. No cut-off for these calls is given here.

Legend:
B16-F10 [1] = assay: Potency index, ratio of maslinic acid IC50 to test compound IC50 for cytotoxicity against mouse B16-F10 cells assessed as reduction in cell viability incubated for 72 hrs by MTT assay; assay type: functional
HT-29 [2] = assay: Induction of apoptosis in human HT-29 cells at IC50 concentration incubated for 24 hrs by Annexin V-FITC/PI staining based flow cytometric analysis; assay type: functional, cell-based
HepG2 [3] = assay: Cytotoxicity against human HepG2 cells assessed as decrease in cell density at IC50 concentration; assay type: functional, cell-based; conditions: time 30-1440 min, TDE = time-dependent effect
B16-F10 [4] = assay: Cytotoxicity against mouse B16-F10 cells assessed as decrease in cell density at IC50 concentration; assay type: functional, cell-based; conditions: time 30-1440 min, TDE = time-dependent effect
B16-F10 [5] = assay: Potency index, ratio of oleanolic acid IC50 to test compound IC50 for cytotoxicity against mouse B16-F10 cells assessed as reduction in cell viability incubated for 72 hrs by MTT assay; assay type: functional
B16-F10 [6] = assay: Induction of apoptosis in mouse B16-F10 cells at IC50 concentration incubated for 24 hrs by Annexin V-FITC/PI staining based flow cytometric analysis; assay type: functional, cell-based
[7] = Drug localization in cytoplasm of human HepG2 cells assessed as green fluorescence at IC50 concentration incubated for 30 min to 24 hrs by DAPI staining based confocal microscopic analysis; assay type: ADME, subcellular; conditions: time 30-1440 min
HepG2 [8] = assay: Induction of apoptosis in human HepG2 cells at IC50 concentration incubated for 24 hrs by Annexin V-FITC/PI staining based flow cytometric analysis; assay type: functional, cell-based
[9] = Drug localization in cytoplasm of mouse B16-F10 cells assessed as green fluorescence at IC50 concentration incubated for 30 min to 24 hrs by DAPI staining based confocal microscopic analysis; assay type: ADME, subcellular; conditions: time 30-1440 min
HT-29 [10] = assay: Potency index, ratio of maslinic acid IC50 to test compound IC50 for cytotoxicity against human HT-29 cells assessed as reduction in cell viability incubated for 72 hrs by MTT assay; assay type: functional
HT-29 [11] = assay: Cytotoxicity against human HT-29 cells assessed as decrease in cell density at IC50 concentration; assay type: functional, cell-based; conditions: time 30-1440 min, TDE = time-dependent effect
HepG2 [12] = assay: Potency index, ratio of oleanolic acid IC50 to test compound IC50 for cytotoxicity against human HepG2 cells assessed as reduction in cell viability incubated for 72 hrs by MTT assay; assay type: functional
[13] = Drug localization in cytoplasm of human HT-29 cells assessed as green fluorescence at IC50 concentration incubated for 30 min to 24 hrs by DAPI staining based confocal microscopic analysis; assay type: ADME, subcellular; conditions: time 30-1440 min
HT-29 [14] = assay: Potency index, ratio of oleanolic acid IC50 to test compound IC50 for cytotoxicity against human HT-29 cells assessed as reduction in cell viability incubated for 72 hrs by MTT assay; assay type: functional
HepG2 [15] = assay: Potency index, ratio of maslinic acid IC50 to test compound IC50 for cytotoxicity against human HepG2 cells assessed as reduction in cell viability incubated for 72 hrs by MTT assay; assay type: functional
HT-29 [16] = assay: Induction of apoptosis in human HT-29 cells assessed as total apoptotic cells at IC50 concentration incubated for 72 hrs by Annexin V-FITC/PI staining based flow cytometric analysis relative to control; assay type: functional
HepG2 [17] = assay: Induction of apoptosis in human HepG2 cells assessed as total apoptotic cells at IC50 concentration incubated for 72 hrs by Annexin V-FITC/PI staining based flow cytometric analysis relative to control; assay type: functional
B16-F10 [18] = assay: Induction of apoptosis in mouse B16-F10 cells assessed as total apoptotic cells at IC50 concentration incubated for 72 hrs by Annexin V-FITC/PI staining based flow cytometric analysis relative to control; assay type: functional

Drug uptake [7]: Active
Drug uptake [9]: Active
Drug uptake [13]: Active
Structure (SMILES): CC1(C)CC[C@]2(C(=O)O)CC[C@]3(C)C(=CC[C@@H]4[C@@]5(C)C[C@@H](OC(=O)CCCCCNc6ccc([N+](=O)[O-])c7nonc67)[C@H](O)C(C)(C)[C@@H]5CC[C@]43C)[C@@H]2C1
Ratio IC50 (B16-F10 [1]): 7.4
Activity (HT-29 [2]): Active
Activity (HepG2 [3]): Tde
Activity (B16-F10 [4]): Tde
Ratio IC50 (B16-F10 [5]): 22
Activity (B16-F10 [6]): Active
Activity (HepG2 [8]): Active
Ratio IC50 (HT-29 [10]): 5
Activity (HT-29 [11]): Tde
Ratio IC50 (HepG2 [12]): 15
Ratio IC50 (HT-29 [14]): 65
Ratio IC50 (HepG2 [15]): 7.1

Drug uptake [7]: Active
Drug uptake [9]: Active
Drug uptake [13]: Active
Structure (SMILES): CC1(C)CC[C@]2(C(=O)O)CC[C@]3(C)C(=CC[C@@H]4[C@@]5(C)CC[C@H](OC(=O)CCCCCNc6ccc([N+](=O)[O-])c7nonc67)C(C)(C)[C@@H]5CC[C@]43C)[C@@H]2C1
Ratio IC50 (B16-F10 [1]): 15
Activity (HT-29 [16]): 31%
Activity (HT-29 [2]): Active
Activity (HepG2 [3]): Tde
Activity (B16-F10 [4]): Tde
Ratio IC50 (B16-F10 [5]): 44
Activity (B16-F10 [6]): Active
Activity (HepG2 [8]): Active
Ratio IC50 (HT-29 [10]): 1.7
Activity (HT-29 [11]): Tde
Activity (HepG2 [17]): 31%
Ratio IC50 (HepG2 [12]): 17
Activity (B16-F10 [18]): 31%
Ratio IC50 (HT-29 [14]): 22
Ratio IC50 (HepG2 [15]): 7.9
